One assay concerns the target T1, MCH receptor (Homo sapiens, UniProt Q99705).
T1 construct: expressed in transfected cells; host or cells: CHO cells (membranes)
The assay can be described thus: MCH Receptor Binding Assay. Conditions: Binding Activity; membranes from CHO cells expressing the MCH receptor, [125I]-MCH; read-out: MCH Ki. How it is done: MCH Receptor Binding Assay:
Membranes from CHO cells expressing the MCH receptor were prepared by lysing cells with 5 mM HEPES for 15 min at 4C. Cell lysates were centrifuged ([…], 15 min) and the pellet was resuspended in 5 mM HEPES. For each 96-well plate (Microlite, Dynex Technologies), 1 mg of cell membranes were incubated with 10 mg of wheat germ agglutinin SPA beads (Amersham) for 5 min at 4 C. in a volume of 10 ml of binding buffer (25 mM HEPES, 10 mM MGCl2, 10 mM NaCl, 5 mM MnCl2, 0.1% BSA). The membrane/bead mixture was centrifuged (1500×g, 3.5 min), the supernatant was aspirated, and the pellet was resuspended in 10 ml binding buffer. The centrifugation, aspiration and resuspension were then repeated. […] Nonspecific binding was determined by including 1 μM MCH in the binding reaction. The binding reaction was incubated at room temperature for 2 h. Plates were then analyzed in a TOPCOUNT microplate scintillation counter (Packard). Data was analyzed and Ki values were determined using GraphPad Prim.
T1 sequence (Q99705 whole entry): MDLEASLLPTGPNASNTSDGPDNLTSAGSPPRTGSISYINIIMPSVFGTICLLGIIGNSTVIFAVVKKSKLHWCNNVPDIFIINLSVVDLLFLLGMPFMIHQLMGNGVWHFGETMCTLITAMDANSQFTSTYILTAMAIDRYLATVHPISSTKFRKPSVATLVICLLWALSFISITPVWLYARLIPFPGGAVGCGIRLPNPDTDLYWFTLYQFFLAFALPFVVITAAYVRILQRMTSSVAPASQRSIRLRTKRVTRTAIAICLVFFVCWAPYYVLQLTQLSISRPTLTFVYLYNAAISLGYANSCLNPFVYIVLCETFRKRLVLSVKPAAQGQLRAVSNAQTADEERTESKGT
On to `CC(C)CN1CCN(CCN(C(=O)Nc2ccc(F)c(C(F)(F)F)c2)[C@@H]2CC[C@]3(c4cccc(C#N)c4)C[C@H]23)CC1` [Example 208], for which the Ki – broadly, a dissociation constant, usually derived from enzyme kinetics or from competition with a known ligand – turned out to be 9 nM.
On the same count and under the same terms, the value for `N#Cc1cccc([C@]23CC[C@@H](N(CCN4CCN(CC5CC5)CC4)C(=O)Nc4ccc(F)c(C(F)(F)F)c4)[C@H]2C3)c1` [Example 209] was 10 nM.
On the same count and under the same terms, the value for `N#Cc1cccc([C@]23CC[C@@H](N(CCN4CCNCC4)C(=O)Nc4ccc(F)c(C(F)(F)F)c4)[C@H]2C3)c1` [Example 210] was 20 nM; that for `N#Cc1cccc([C@]23CC[C@@H](N(CCCCN4CCOCC4)C(=O)Nc4ccc(F)c(C(F)(F)F)c4)[C@H]2C3)c1` [Example 225] was 2.6 nM; that for `CN1CCN(CCCCN(C(=O)Nc2ccc(F)c(C(F)(F)F)c2)[C@@H]2CC[C@]3(c4cccc(C#N)c4)C[C@H]23)CC1` [Example 226] was 2.2 nM.
Same read-out and setting: the value for `N#Cc1cccc([C@]23CC[C@@H](N(CCCCN4CCCCC4)C(=O)Nc4ccc(F)c(C(F)(F)F)c4)[C@H]2C3)c1` [Example 227] was 1.6 nM.

Staying with this assay, now noted: Table 1b, preferred compounds; read-out: MCH R1 Ki.
Take `N#Cc1cccc([C@]23CC[C@@H](N(CCN4CC[C@@H](O)C4)C(=O)Nc4ccc(F)c(C(F)(F)F)c4)[C@H]2C3)c1` [drawing 636]: the Ki is 11 nM.
Still for that read-out and setting: the value for `N#Cc1cccc([C@@]23CC[C@@H](N(CCCN4CC[C@@H](O)C4)C(=O)Nc4ccc(F)c(Cl)c4)CC2C3)c1` (stereo partly drawn) [drawing 646] was 3 nM; that for `N#Cc1cccc([C@@]23CC[C@@H](N(CCN4CC[C@@H](O)C4)C(=O)Nc4ccc(F)c(C(F)(F)F)c4)CC2C3)c1` (stereo partly drawn) [drawing 651] was 6.2 nM.
On the same count and under the same terms, the value for `N#Cc1cccc([C@@]23CC[C@@H](N(CCN4CC[C@@H](O)C4)C(=O)Nc4ccc(F)c(C(F)(F)F)c4)CC2C3)c1` (stereo partly drawn) [drawing 655] was 16 nM.
The same measure, in the same setting: the value for `N#Cc1cccc([C@@]23CC[C@@H](N(CCCN4CC[C@@H](O)C4)C(=O)Nc4ccc(F)c(Cl)c4)CC2C3)c1` (stereo partly drawn) [drawing 656] was 1.8 nM; that for `N#Cc1cccc([C@]23CC[C@@H](N(CCN4CC[C@@H](O)C4)C(=O)Nc4ccc(F)c(C(F)(F)F)c4)[C@H]2C3)c1` [drawing 669] was 7.1 nM; that for `N#Cc1cccc([C@]23CC[C@@H](N(CCN4CCCCC4)C(=O)Nc4ccc(F)c(Cl)c4)[C@H]2C3)c1` [drawing 671] was 4.1 nM.
`CN(C)CCN(C(=O)Nc1ccc(F)c(Cl)c1)[C@@H]1CC[C@]2(c3cccc(C#N)c3)C[C@H]12` [drawing 673]: the inhibition constant (Ki) is 14 nM.
On the same count and under the same terms, the value for `N#Cc1cccc([C@]23CC[C@@H](N(CCCCN4CCCC4)C(=O)Nc4ccc(F)c(Cl)c4)[C@H]2C3)c1` [drawing 675] was 3.9 nM.
